Experimental data taken from PubChem BioAssay (NCI).
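How tested: cells in 96-well plates exposed to compound for 48 hours at five concentrations. GI50 marks 50% less growth. TGI denotes the concentration required for complete inhibition of growth.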

Key:
Test in all cases: growth of human tumour cells (NCI), 48 h
786-0 renal = system: 786-0 renal
A498 renal = system: A498 renal
A549 NSCLC = system: A549 NSCLC
ACHN renal = system: ACHN renal
BT-549 breast = system: BT-549 breast
CAKI-1 renal = system: CAKI-1 renal
CCRF-CEM leukemia = system: CCRF-CEM leukemia
COLO 205 colon = system: COLO 205 colon
DU-145 prostate = system: DU-145 prostate
EKVX NSCLC = system: EKVX NSCLC
HCC-2998 colon = system: HCC-2998 colon
HCT-116 colon = system: HCT-116 colon
HCT-15 colon = system: HCT-15 colon
HL-60(TB) leukemia = system: HL-60(TB) leukemia
HOP-62 NSCLC = system: HOP-62 NSCLC
HOP-92 NSCLC = system: HOP-92 NSCLC
HS 578T breast = system: HS 578T breast
HT29 colon = system: HT29 colon
IGROV1 ovarian = system: IGROV1 ovarian
K-562 leukemia = system: K-562 leukemia
KM12 colon = system: KM12 colon
LOX IMVI melanoma = system: LOX IMVI melanoma
M14 melanoma = system: M14 melanoma
MALME-3M melanoma = system: MALME-3M melanoma
MCF7 breast = system: MCF7 breast
MDA-MB-231 breast = system: MDA-MB-231 breast
MDA-MB-435 = system: MDA-MB-435
MDA-MB-468 breast = system: MDA-MB-468 breast
MOLT-4 leukemia = system: MOLT-4 leukemia
NCI-H226 lung = system: NCI-H226 lung
NCI-H23 lung = system: NCI-H23 lung
NCI-H460 lung = system: NCI-H460 lung
NCI-H522 lung = system: NCI-H522 lung
OVCAR-3 ovarian = system: OVCAR-3 ovarian
OVCAR-4 ovarian = system: OVCAR-4 ovarian
OVCAR-5 ovarian = system: OVCAR-5 ovarian
OVCAR-8 ovarian = system: OVCAR-8 ovarian
PC-3 prostate = system: PC-3 prostate
RPMI-8226 leukemia = system: RPMI-8226 leukemia
RXF 393 renal = system: RXF 393 renal
SF-268 CNS = system: SF-268 CNS
SF-295 CNS = system: SF-295 CNS
SF-539 CNS = system: SF-539 CNS
SK-MEL-2 melanoma = system: SK-MEL-2 melanoma
SK-MEL-28 melanoma = system: SK-MEL-28 melanoma
SK-MEL-5 melanoma = system: SK-MEL-5 melanoma
SK-OV-3 ovarian = system: SK-OV-3 ovarian
SN12C renal = system: SN12C renal
SNB-19 CNS = system: SNB-19 CNS
SNB-75 CNS = system: SNB-75 CNS
SR leukemia = system: SR leukemia
SW-620 colon = system: SW-620 colon
T-47D breast = system: T-47D breast
TK-10 renal = system: TK-10 renal
U251 CNS = system: U251 CNS
UACC-257 melanoma = system: UACC-257 melanoma
UACC-62 melanoma = system: UACC-62 melanoma
UO-31 renal = system: UO-31 renal

For O=C(/C=C/c1ccc(Br)cc1)c1nc2ccccc2n1Cc1ccc(Br)cc1, the GI50 (786-0 renal) was over 100 µM, the TGI (786-0 renal) was over 100 µM and the GI50 (A498 renal) was over 100 µM. For the same molecule, the TGI (A498 renal) was over 100 µM, the GI50 (A549 NSCLC) was over 100 µM and the TGI (A549 NSCLC) was over 100 µM. It also gave a GI50 (ACHN renal) of over 100 µM, a TGI (ACHN renal) of over 100 µM and a GI50 (BT-549 breast) of 96 µM. It also gave a TGI (BT-549 breast) of over 100 µM, a GI50 (CAKI-1 renal) of 53 µM and a TGI (CAKI-1 renal) of over 100 µM. For the same molecule, the GI50 (CCRF-CEM leukemia) was 18.2 µM, the TGI (CCRF-CEM leukemia) was over 100 µM and the GI50 (COLO 205 colon) was over 100 µM. For the same molecule, the TGI (COLO 205 colon) was over 100 µM, the GI50 (DU-145 prostate) was over 100 µM and the TGI (DU-145 prostate) was over 100 µM. The GI50 (EKVX NSCLC) was over 100 µM, the TGI (EKVX NSCLC) was over 100 µM and the GI50 (HCC-2998 colon) was over 100 µM. For the same molecule, the TGI (HCC-2998 colon) was over 100 µM, the GI50 (HCT-116 colon) was 56.6 µM and the TGI (HCT-116 colon) was over 100 µM. The GI50 (HCT-15 colon) was 40.5 µM, the TGI (HCT-15 colon) was over 100 µM and the GI50 (HL-60(TB) leukemia) was 24.1 µM. The TGI (HL-60(TB) leukemia) was over 100 µM, the GI50 (HOP-62 NSCLC) was over 100 µM and the TGI (HOP-62 NSCLC) was over 100 µM. For the same molecule, the GI50 (HOP-92 NSCLC) was 58.6 µM, the TGI (HOP-92 NSCLC) was over 100 µM and the GI50 (HS 578T breast) was over 100 µM. It also gave a TGI (HS 578T breast) of over 100 µM, a GI50 (HT29 colon) of 68.7 µM and a TGI (HT29 colon) of over 100 µM. It also gave a GI50 (IGROV1 ovarian) of over 100 µM, a TGI (IGROV1 ovarian) of over 100 µM and a GI50 (K-562 leukemia) of 39.5 µM. It also gave a TGI (K-562 leukemia) of over 100 µM, a GI50 (KM12 colon) of 80.5 µM and a TGI (KM12 colon) of over 100 µM. It also gave a GI50 (LOX IMVI melanoma) of 30.9 µM, a TGI (LOX IMVI melanoma) of over 100 µM and a GI50 (M14 melanoma) of over 100 µM. It also gave a TGI (M14 melanoma) of over 100 µM, a GI50 (MALME-3M melanoma) of over 100 µM and a TGI (MALME-3M melanoma) of over 100 µM. It also gave a GI50 (MCF7 breast) of 24.1 µM, a TGI (MCF7 breast) of over 100 µM and a GI50 (MDA-MB-231 breast) of 99.1 µM. It also gave a TGI (MDA-MB-231 breast) of over 100 µM, a GI50 (MDA-MB-435) of 35.6 µM and a TGI (MDA-MB-435) of over 100 µM. The GI50 (MDA-MB-468 breast) was 35.9 µM, the TGI (MDA-MB-468 breast) was over 100 µM and the GI50 (MOLT-4 leukemia) was 17 µM. It also gave a TGI (MOLT-4 leukemia) of over 100 µM, a GI50 (NCI-H226 lung) of over 100 µM and a TGI (NCI-H226 lung) of over 100 µM. For the same molecule, the GI50 (NCI-H23 lung) was over 100 µM, the TGI (NCI-H23 lung) was over 100 µM and the GI50 (NCI-H460 lung) was 59.3 µM. The TGI (NCI-H460 lung) was over 100 µM, the GI50 (NCI-H522 lung) was over 100 µM and the TGI (NCI-H522 lung) was over 100 µM. The GI50 (OVCAR-3 ovarian) was 35 µM, the TGI (OVCAR-3 ovarian) was over 100 µM and the GI50 (OVCAR-4 ovarian) was over 100 µM. For the same molecule, the TGI (OVCAR-4 ovarian) was over 100 µM, the GI50 (OVCAR-5 ovarian) was over 100 µM and the TGI (OVCAR-5 ovarian) was over 100 µM. For the same molecule, the GI50 (OVCAR-8 ovarian) was 97.7 µM, the TGI (OVCAR-8 ovarian) was over 100 µM and the GI50 (PC-3 prostate) was 58.6 µM. It also gave a TGI (PC-3 prostate) of over 100 µM, a GI50 (RPMI-8226 leukemia) of 25.2 µM and a TGI (RPMI-8226 leukemia) of over 100 µM. For the same molecule, the GI50 (RXF 393 renal) was 86.9 µM, the TGI (RXF 393 renal) was over 100 µM and the GI50 (SF-268 CNS) was over 100 µM. It also gave a TGI (SF-268 CNS) of over 100 µM, a GI50 (SF-295 CNS) of over 100 µM and a TGI (SF-295 CNS) of over 100 µM. It also gave a GI50 (SF-539 CNS) of over 100 µM, a TGI (SF-539 CNS) of over 100 µM and a GI50 (SK-MEL-2 melanoma) of over 100 µM. It also gave a TGI (SK-MEL-2 melanoma) of over 100 µM, a GI50 (SK-MEL-28 melanoma) of over 100 µM and a TGI (SK-MEL-28 melanoma) of over 100 µM. For the same molecule, the GI50 (SK-MEL-5 melanoma) was over 100 µM, the TGI (SK-MEL-5 melanoma) was over 100 µM and the GI50 (SK-OV-3 ovarian) was over 100 µM. The TGI (SK-OV-3 ovarian) was over 100 µM, the GI50 (SN12C renal) was over 100 µM and the TGI (SN12C renal) was over 100 µM. It also gave a GI50 (SNB-19 CNS) of over 100 µM, a TGI (SNB-19 CNS) of over 100 µM and a GI50 (SNB-75 CNS) of over 100 µM. It also gave a TGI (SNB-75 CNS) of over 100 µM, a GI50 (SR leukemia) of 28 µM and a TGI (SR leukemia) of over 100 µM. For the same molecule, the GI50 (SW-620 colon) was 30 µM, the TGI (SW-620 colon) was over 100 µM and the GI50 (T-47D breast) was 24.7 µM. The TGI (T-47D breast) was over 100 µM, the GI50 (TK-10 renal) was over 100 µM and the TGI (TK-10 renal) was over 100 µM. For the same molecule, the GI50 (U251 CNS) was 42.6 µM, the TGI (U251 CNS) was over 100 µM and the GI50 (UACC-257 melanoma) was over 100 µM. For the same molecule, the TGI (UACC-257 melanoma) was over 100 µM, the GI50 (UACC-62 melanoma) was over 100 µM and the TGI (UACC-62 melanoma) was over 100 µM. For the same molecule, the GI50 (UO-31 renal) was 45.9 µM and the TGI (UO-31 renal) was over 100 µM.
